The record followed here is patent US5242942A, “Anticonvulsant fructopyranose cyclic sulfites and sulfates” (McNeilab, Inc., priority 1992, dated 1993).

One assay relates to tonic extensor seizure. Put plainly: maximal electroshock test (MES). The assay is classed as in vivo, mouse (albino male CRS-CD1). As to conditions: PO, mouse, 4 hr, read-out: % Block (MES Test, mouse). As to the method:
The compounds of formula (I) are particularly useful as anticonvulsant agents in mammals including humans. The anticonvulsant activity of the subject compounds was determined using a standard "maximal electroshock test" (MES). In this test, activity is indicated by a block of the […] extensor seizure caused by application of an electric shock to mice via corneal electrodes, as described by Swinyard et al. in J. Pharmacol. Expt. Ther. 1952, 106, 319, and recorded as % block. A more recent description of current anticonvulsant drug screening is given by Swinyard in Epilepsia 1978, 19, 409. The anticonvulsant activity of the compounds of this invention tested according to the Swinyard 1952 method is shown in the following Table I.
In the test, albino male CRS-CD1 mice weighing between 18-25 g were used in all experiments (obtained from Charles River). They were allowed food and water ad libitum and were used only once. The electroshock apparatus and the corneal electrodes were purchased from Wahlquist Instrument Company, Salt Lake City, Utah.
Maximal electroshock seizures were induced by the delivery of a 60 Hertz (Hz) current of 50 milliamps (mA) intensity to the mouse through corneal electrodes for 0.2 seconds as originally described by Swinyard et al. (1952). This stimulus intensity is approximately 4 to 6 times the current producing 100% tonic extensor convulsions. During the validation of the MES test, the duration of the various seizure components following maximal electroshock were measured as follows: hindleg tonic flexion was measured from the time of the application of the stimulus to the time of onset of hindleg tonic extension (i.e. when the hindlegs deviate by greater than an angle of 90° from the torso), hindleg tonic extensor was measured from the time of extensor thrust to the onset of generalized clonus, and terminal clonus was measured from the beginning to the end of bilateral rhythmic clonic jerking. Mortality was also recorded. The duration of each seizure component agreed well with the values previously reported by Tedeschi et al. in J. Pharmacol. Expt. Ther. 1955, 116, 107. The corneal electrodes were concave so that saline could be applied to the electrodes to reduce mortality. If this procedure is followed, mortality should always be less than 40% in control mice. Thus, at an electroshock stimulus of 60 Hz, 50 mA and 0.2 seconds duration, the order of convulsive components and the percentage of control animals displaying the behaviors should be as follows: tonic flexion (100%), tonic extension (100%) and clonus (100%) with less than 40% mortality.
For testing compounds, the abolition of the tonic extensor component was the endpoint. Animals were dosed orally (PO) with either vehicle or test drug and at a specified time were given a maximal electric shock through corneal electrodes blotted with saline (as described above). A minimum of 10 animals were used per group and the percentage of animals in the group without tonic hindlimb extension recorded. Determination of ED50 values (that dose of drug inhibiting 50% of the tonic extensor seizures) is shown below in Table I.

The nature of a further assay: rat diuresis study. The class given is in vivo, rat (male Wistar). Particulars: average of five animals; for Water Intake: control 15.0; for Urine Output: control 17.6. The source says:
Evidence for the inhibition of carbonic anhydrase by compounds of the formula (I) can also be obtained by a diuresis study, such as described by A. Weiner in Goodman and Gilman's The Pharmacological Basis of Therapeutics, 8th ed.; Goodman Gilman, A.; Rall, T. W.; Nies, A. S.; Taylor, P., Eds.; Pergamon Press: New York, 1990; pp 716-718. An increase in urine akalinity accompanied with an increase in water intake and urine output provides an indirect indication of carbonic anhydrase inhibition activity. Male Wistar rats having a weight of 250-300 g were dosed orally (PO) and housed in cages that allowed for the quantitative measure of fluid intake and urine output. Water intake and urine output were measured at 24 hours versus control, whereas urine pH, obtained via pH meter, was measured at 4 and 24 hours versus control. The results of this study, which are the average of five animals, are reported below in Table III. […] Such data is also an indication of the usefulness of the compounds of formula (I) as diuretics in the treatment of hypertension, congestive heart failure and other types of edema. The determination of suitable dosages for such compounds for the treatment of hypertension and congestive heart failure and other types of edema is within the skill of the art.

With `CC1(C)O[C@@H]2[C@H]3OS(=O)(=O)O[C@H]3CO[C@]2(COS(N)(=O)=O)O1` [Example 2, 2,3-O-(1-Methylethylidene)-4,5-O-sulfonyl-β-L-fructopyranose Sulfamate], the responders at 75 mg/kg with tonic extensor seizure is 80%.
In the case of `CNS(=O)(=O)OC[C@@]12OC[C@H]3OS(=O)(=O)O[C@H]3[C@@H]1OC(C)(C)O2` [Example 3, 2,3-O-(1-Methylethylidene)-4,5-O-sulfonyl-β-D-fructopyranose Methylsulfamate], the responders at 10 mg/kg in the assay on tonic extensor seizure is 100%. The “Urine pH” value in the assay “rat diuresis study” (2.7 mg/kg PO, 4 hours, control 6.98) is 9.02. For the same compound, the “Urine pH” value in the assay “rat diuresis study” (2.7 mg/kg PO, 24 hours, control 6.43) was 6.78. Also, in the assay “rat diuresis study” (2.7 mg/kg PO, 24 hours), the “Water Intake” value was found to be 23.6 mL and the “Urine Output” value is recorded as 28.8 mL.
As to `CCCCNS(=O)(=O)OC[C@@]12OC[C@H]3OS(=O)(=O)O[C@H]3[C@@H]1OC(C)(C)O2` [Example 4, 2,3-O-(1-Methylethylidene)-4,5-O-sulfonyl-β-D-fructopyranose Butylsulfamate], the responders at 35 mg/kg in the assay with tonic extensor seizure was 100%.
With `CCNS(=O)(=O)OC[C@@]12OC[C@H]3OS(=O)(=O)O[C@H]3[C@@H]1OC(C)(C)O2` [Example 5, 2,3-O-(1-Methylethylidene)-4,5-O-sulfonyl-β-D-fructopyranose Ethylsulfamate], in the assay with tonic extensor seizure, the responders at 10 mg/kg is 100%. Moreover, the “Urine pH” value in “rat diuresis study” (1.2 mg/kg PO, 4 hours, control 6.98) turned out to be 9.03. The “Urine pH” value in “rat diuresis study” (1.2 mg/kg PO, 24 hours, control 6.43) was 6.41. For the same compound, in “rat diuresis study” (1.2 mg/kg PO, 24 hours), the “Water Intake” value was found to be 15.8 mL and the “Urine Output” value was found to be 19.9 mL.
In the case of `CCCCCCCCNS(=O)(=O)OC[C@@]12OC[C@H]3OS(=O)(=O)O[C@H]3[C@@H]1OC(C)(C)O2` [Example 6, 2,3-O-(1-Methylethylidene)-4,5-O-sulfonyl-β-D-fructopyranose Octylsulfamate], the responders at 75 mg/kg with tonic extensor seizure is 100%.
With `C=CCNS(=O)(=O)OC[C@@]12OC[C@H]3OS(=O)(=O)O[C@H]3[C@@H]1OC(C)(C)O2` [Example 7, 2,3-O-(1-Methylethylidene)-4,5-O-sulfonyl-β-D-fructopyranose 2-Propenylsulfamate], the responders at 10 mg/kg with tonic extensor seizure stood at 70%.
`CC1(C)O[C@H]2[C@@H]3OS(=O)(=O)O[C@@H]3CO[C@@]2(COS(=O)(=O)NCc2ccccc2)O1` [Example 8, 2,3-O-(1-Methylethylidene)-4,5-O-sulfonyl-β-D-fructopyranose Phenylmethylsulfamate]: the responders at 75 mg/kg in the assay on tonic extensor seizure came out at 100%.
Consider `CC1(C)O[C@H]2[C@@H]3OS(=O)(=O)O[C@@H]3CO[C@@]2(COS(=O)(=O)NC2CCC2)O1` [Example 10, 2,3-O-(1-Methylethylidene)-4,5-O-sulfonyl-β-D-fructopyranose Cyclobutylsulfamate], for which the responders at 10 mg/kg in the assay on tonic extensor seizure came out at 90%.
On the same count and under the same terms, under `CC1(C)O[C@H]2[C@@H]3OS(=O)(=O)O[C@@H]3CO[C@@]2(COS(=O)(=O)NCC(F)(F)F)O1` [Example 12, 2,3-O-(1-Methylethylidene)-4,5-O-sulfonyl-β-D-fructopyranose (2,2,2-Trifluoroethyl)sulfamate] stands 40%.
As to `CN(C)S(=O)(=O)OC[C@@]12OC[C@H]3OS(=O)(=O)O[C@H]3[C@@H]1OC(C)(C)O2` [Example 13, 2,3-O-(1-Methylethylidene)-4,5-O-sulfonyl-β-D-fructopyranose Dimethylsulfamate], the responders at 10 mg/kg in the assay on tonic extensor seizure was found to be 70%. Further, the “Urine pH” value in the assay “rat diuresis study” (2.1 mg/kg PO, 4 hours, control 6.98) came to 8.93. Moreover, the “Urine pH” value in the assay “rat diuresis study” (2.1 mg/kg PO, 24 hours, control 6.43) was 6.81. Besides, in the assay “rat diuresis study” (2.1 mg/kg PO, 24 hours), the “Water Intake” value came out at 21 mL and the “Urine Output” value came to 23.2 mL.
With `CCN(CC)S(=O)(=O)OC[C@@]12OC[C@H]3OS(=O)(=O)O[C@H]3[C@@H]1OC(C)(C)O2` [Example 14, 2,3-O-(1-Methylethylidene)-4,5-O-sulfonyl-β-D-fructopyranose Diethylsulfamate], the responders at 10 mg/kg in the assay on tonic extensor seizure was determined as 10%.
As for `CC1(C)O[C@H]2[C@@H]3O[S@@](=O)O[C@@H]3CO[C@@]2(COS(N)(=O)=O)O1` [Example 16, (S)-2,3-O-(1-Methylethylidene)-4,5 -O-sulfinyl-β-D-fructopyranose Sulfamate], the responders at 75 mg/kg with tonic extensor seizure turned out to be 40%.
In the case of `CC1(C)O[C@H]2[C@@H]3O[S@](=O)O[C@@H]3CO[C@@]2(COS(N)(=O)=O)O1` [Example 17, (R)-2,3-O-(1-Methylethylidene)-4,5-O-sulfinyl-β-D-fructopyranose Sulfamate], the responders at 35 mg/kg in the assay on tonic extensor seizure is 90%.
Regarding `CCC1(CC)O[C@H]2[C@@H]3OS(=O)(=O)O[C@@H]3CO[C@@]2(COS(N)(=O)=O)O1` [Example 18, 2,3-O-(1-Ethylpropylidene)-4,5-O-sulfonyl-β-D-fructopyranose Sulfamate], the responders at 75 mg/kg in the assay on tonic extensor seizure worked out at 100%.
Take `Cc1ccc(S(=O)(=O)N=S2O[C@@H]3[C@@H](CO[C@@]4(COS(N)(=O)=O)OC(C)(C)O[C@@H]34)O2)cc1` (stereo partly drawn) [Example 19, 2,3-O-(1-Methylethylidene)-4,5-O-[N-(4-methylbenzenesulfonyl)imidosulfinyl]-β-D-fructopyranose Sulfamate]: the responders at 300 mg/kg with tonic extensor seizure came to 80%.
Still for that read-out and setting: to `Cc1ccc(S(=O)(=O)N=S2(=O)O[C@@H]3[C@@H](CO[C@@]4(COS(N)(=O)=O)OC(C)(C)O[C@@H]34)O2)cc1` (stereo partly drawn) [Example 20, 2,3-O-(1-Methylethylidene)-4,5-O-[N-(4-methylbenzenesulfonyl)imidosulfonyl]-β-D-fructopyranose Sulfamate] belongs 75%.
